Assay results as given in the supplement of paper PMC11061612.

Tests used:
Assay in all cases: combination Emax (second highest fraction inhibited in the dose matrix, 72 h); higher = more inhibition; extreme values may be limits of the assay
[1] = tested on: SLVL (B-Cell Non-Hodgkin's Lymphoma)
In short: (§1)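 Bliss excess equals the observed combination effect minus the expected value EA + EB − EA·EB, where EA and EB are the effects of each agent alone. Combination Emax is the second-highest inhibition within the matrix. Inhibition was scaled from CellTiter-Glo 2.0 luminescence, with 0 set by vehicle wells and 1 by blank wells, after 72 hours of two-drug dosing of cells plated in 1536-well plates.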

HCC38 (Breast Carcinoma) = tested on: HCC38 (Breast Carcinoma)
In short: as §1

D-392MG (Glioblastoma) = tested on: D-392MG (Glioblastoma)
In short: as §1

[2] = tested on: MEG-01 (Chronic Myelogenous Leukemia)
In short: as §1

H4 (Low Grade Glioma) = tested on: H4 (Low Grade Glioma)
In short: as §1

[3] = tested on: D-283MED (Other Solid Carcinomas)
In short: as §1

[4] = tested on: TC-YIK (Other Solid Carcinomas)
In short: as §1

[5] = tested on: SK-UT-1 (Other Solid Carcinomas)
In short: as §1

[6] = tested on: SNG-M (Endometrial Carcinoma)
In short: as §1

[7] = tested on: HCT-116 (Colorectal Carcinoma)
In short: as §1

[8] = tested on: SK-LMS-1 (Other Solid Carcinomas)
In short: as §1

[9] = tested on: HLE (Hepatocellular Carcinoma)
In short: as §1

[10] = tested on: SW948 (Colorectal Carcinoma)
In short: as §1

[11] = tested on: BICR78 (Oral Cavity Carcinoma)
In short: as §1

[12] = tested on: WSU-DLCL2 (B-Cell Non-Hodgkin's Lymphoma)
In short: as §1

Saos-2 (Osteosarcoma) = tested on: Saos-2 (Osteosarcoma)
In short: as §1

CS1 (Chondrosarcoma) = tested on: CS1 (Chondrosarcoma)
In short: as §1

EW-22 (Ewing's Sarcoma) = tested on: EW-22 (Ewing's Sarcoma)
In short: as §1

SK-MEL-1 (Melanoma) = tested on: SK-MEL-1 (Melanoma)
In short: as §1

MSTO-211H (Mesothelioma) = tested on: MSTO-211H (Mesothelioma)
In short: as §1

Compound | combination Emax [1] | combination Emax (HCC38 (Breast Carcinoma)) | combination Emax (D-392MG (Glioblastoma)) | combination Emax [2] | combination Emax (H4 (Low Grade Glioma)) | combination Emax [3] | combination Emax [4] | combination Emax [5] | combination Emax [6] | combination Emax [7] | combination Emax [8] | combination Emax [9] | combination Emax [10] | combination Emax [11] | combination Emax [12] | combination Emax (Saos-2 (Osteosarcoma)) | combination Emax (CS1 (Chondrosarcoma)) | combination Emax (EW-22 (Ewing's Sarcoma)) | combination Emax (SK-MEL-1 (Melanoma)) | combination Emax (MSTO-211H (Mesothelioma))
CN(CCO)CC[C@H](CSc1ccccc1)Nc1ccc(S(=O)(=O)NC(=O)c2ccc(N3CCC([C@@H](O)c4ccccc4-c4ccc(Cl)cc4)CC3)cc2)cc1S(=O)(=O)C(F)(F)F [AZD4320] + Nc1ccn([C@@H]2O[C@H](CO)[C@@H](O)C2(F)F)c(=O)n1 [Gemcitabine] (first compound max 1 µM, 7x7, partner max 0.3 µM) | 1 | 0.813 | 0.96 | 0.93 | 0.988 | 1 | 1 | 0.978 | 0.913 | 0.899 | 0.984 | 0.887 | 0.524 | 0.63 | 1 | 0.984 | 0.789 | 0.999 | 0.649 | 0.96
N#Cc1cnc(Nc2cc(NC[C@H]3CNCCO3)c(C(F)(F)F)cn2)cn1 [SRA737] + Nc1ccn([C@@H]2O[C@H](CO)[C@@H](O)C2(F)F)c(=O)n1 [Gemcitabine] (first compound max 10 µM, 7x7, partner max 0.3 µM) | 0.961 | 0.731 | 0.611 | 0.883 | 0.953 | 1 | 0.872 | 0.957 | 0.869 | 0.873 | 0.855 | 0.773 | 0.828 | 0.782 | 1 | 0.817 | 0.737 | 0.93 | 0.482 | 0.83
C[C@@H](Nc1cc(F)cc(F)c1)c1cc(C(=O)N(C)C)cc2c(=O)cc(N3CCOCC3)oc12 [AZD8186] + CC(=O)c1c(C)c2cnc(Nc3ccc(N4CCNCC4)cn3)nc2n(C2CCCC2)c1=O [Palbociclib] (first compound max 10 µM, 7x7, partner max 10 µM) | 0.439 | 0.209 | 0.446 | 0.182 | 0.697 | 0.831 | 0.741 | 0.231 | 0.432 | 0.684 | 0.808 | 0.197 | 0.433 | 0.385 | 0.762 | 0.329 | 0.513 | 0.45 | 0.265 | 0.428
N#Cc1cnc(Nc2cc(NC[C@H]3CNCCO3)c(C(F)(F)F)cn2)cn1 [SRA737] + CCc1c2c(nc3ccc(O)cc13)-c1cc3c(c(=O)n1C2)COC(=O)[C@]3(O)CC [SN-38] (first compound max 10 µM, 7x7, partner max 0.3 µM) | 0.945 | 0.682 | 0.453 | 0.946 | 0.832 | 0.994 | 1 | 0.943 | 0.786 | 0.818 | 0.89 | 0.798 | 0.834 | 0.854 | 1 | 0.948 | 0.786 | 0.932 | 0.486 | 0.705
C=CCn1c(=O)c2cnc(Nc3ccc(N4CCN(C)CC4)cc3)nc2n1-c1cccc(C(C)(C)O)n1 [AZD1775] + Nc1ccn([C@@H]2O[C@H](CO)[C@@H](O)C2(F)F)c(=O)n1 [Gemcitabine] (first compound max 1 µM, partner max 0.3 µM) | 0.954 | 0.747 | 0.597 | 0.918 | 0.949 | 0.995 | 0.865 | 0.916 | 0.751 | 0.88 | 0.804 | 0.709 | 0.879 | 0.718 | 1 | 0.843 | 0.661 | 0.921 | 0.422 | 0.815
Cc1c2c(nn1C)CSCc1cc(n(C)n1)CSc1cc(c3ccccc3c1)OCCCc1c(C(=O)O)n(C)c3c-2c(Cl)ccc13 [AZD5991] + Nc1ccn([C@@H]2O[C@H](CO)[C@@H](O)C2(F)F)c(=O)n1 [Gemcitabine] (first compound max 1 µM, 7x7, partner max 0.3 µM) | 0.968 | 0.711 | 0.642 | 0.745 | 0.949 | 0.986 | 0.877 | 0.904 | 0.882 | 0.828 | 0.83 | 0.713 | 0.334 | 0.642 | 1 |  | 0.445 | 0.933 | 0.441 | 0.861
N#Cc1cnc(Nc2cc(NC[C@H]3CNCCO3)c(C(F)(F)F)cn2)cn1 [SRA737] + O=c1[nH]cc(F)c(=O)[nH]1 [5-Fluorouracil] (first compound max 10 µM, 7x7, partner max 20 µM) | 0.927 | 0.507 | 0.313 | 0.835 | 0.619 |  | 0.723 | 0.799 | 0.71 | 0.737 | 0.268 | 0.129 | 0.45 | 0.55 |  | 0.457 | 0.405 | 0.736 | 0.157 | 0.536
